Data: patent US12281102B2, “Inhibitors of APOL1 and methods of using same” (Vertex Pharmaceuticals Incorporated, priority 2020, dated 2025)

Biological target: T1, G1 APOL1 (Homo sapiens, UniProt O14791, I384M/S342G)
T1 construct: expressed in transfected cells
T1 sequence (O14791 28-398 S342G/I384M): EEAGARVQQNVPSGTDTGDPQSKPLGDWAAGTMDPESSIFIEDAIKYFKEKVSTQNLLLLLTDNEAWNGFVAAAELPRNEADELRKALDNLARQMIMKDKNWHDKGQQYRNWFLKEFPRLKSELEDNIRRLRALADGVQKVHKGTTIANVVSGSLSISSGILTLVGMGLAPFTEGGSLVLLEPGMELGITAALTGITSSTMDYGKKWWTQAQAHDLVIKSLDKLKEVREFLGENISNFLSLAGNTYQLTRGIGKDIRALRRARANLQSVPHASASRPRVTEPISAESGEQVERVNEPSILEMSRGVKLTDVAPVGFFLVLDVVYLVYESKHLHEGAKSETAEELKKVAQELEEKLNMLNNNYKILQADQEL
Test: Acute APOL1 Thallium Assay with inducible stable clones of HEK 293 cells
Type: cell-based
Conditions: HEK 293 T-Rex inducible stable clone expressing G1 APOL1; read-out: Thallium Assay (IC50)
Method in brief: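 A tetracycline-inducible HEK293 T-Rex clone (G1 DC3.25) expressing G1 APOL1 was plated at 26,000 cells/well, with tetracycline added at plating to induce expression. Cells were loaded with an AM-ester thallium-sensitive dye and stimulated with Tl+. Pore activity was read as the FLIPR Tetra fluorescence increase from Tl+ influx.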

Compound `O=C1NCCN1C[C@H]1C[C@H](c2c(-c3ccc(F)cc3)[nH]c3c(F)cc(F)cc32)C1` [Compound 373, 1-(((1r,3r)-3-(5,7-difluoro-2-(4-fluorophenyl)-1H-indol-3-yl)cyclobutyl)methyl)imidazolidin-2-one] has an IC50 of under 250 nM.

Compound `N[C@H]1C[C@H](Cc2c(-c3ccc(F)cc3)[nH]c3c(F)cc(F)cc23)C1` [Compound 157, trans-3-[[5,7-difluoro-2-(4-fluorophenyl)-1H-indol-3-yl]methyl]cyclobutanamine] has an IC50 of under 250 nM.

With `OCC(O)CNCC1CC(c2c(-c3ccc(F)cc3)[nH]c3c(F)cc(F)cc23)C1` (stereo not shown) [Compound 385] the IC50 was 250 to 1000 nM.

`OCC1(NCC2CC(c3c(-c4ccc(F)cc4)[nH]c4c(F)cc(F)cc34)C2)COC1` (stereo not shown) [Compound 390] showed an IC50 of over 1000 nM.

Work on `NC1CC(c2c(-c3ccc(OC(F)F)cc3)[nH]c3c(F)cc(F)cc23)C1` (stereo not shown) [Compound 9] yielded an IC50 of under 250 nM.

With `CCS(=O)(=O)NCC(=O)N[C@H]1C[C@H](c2c(-c3ccc(F)cc3)[nH]c3c(F)cc(F)cc32)C1` [Compound 108] the IC50 was over 1000 nM.

`O=C(CC(=O)N1CCOCC1)N[C@H]1C[C@H](c2c(-c3ccc(F)cc3)[nH]c3c(F)cc(F)cc32)C1` [Compound 120] showed an IC50 of over 1000 nM.

Compound `NC12CC(NCC3CC(c4c(-c5ccc(F)cc5)[nH]c5c(F)cc(F)cc45)C3)(C1)C2` (stereo not shown) [Compound 384] has an IC50 of 250 to 1000 nM.

In the case of `CN(CC(O)CO)S(=O)(=O)NC[C@H]1C[C@H](c2c(-c3ccc(F)cc3)[nH]c3c(F)cc(F)cc32)C1` (stereo partly shown) [Compound 361], the IC50 is reported as over 1000 nM.

Work on `NS(=O)(=O)CCCC(=O)N[C@H]1C[C@@H](c2c(-c3ccc(F)cc3)[nH]c3c(F)cc(F)cc32)C1` [Compound 58] yielded an IC50 of 250 to 1000 nM.

Work on `O=C(NC1CC(Cc2c(-c3ccc(F)cc3)[nH]c3c(F)cc(F)cc23)C1)c1ccn[nH]1` (stereo not shown) [Compound 166] yielded an IC50 of over 1000 nM.

`CS(=O)(=O)NCC(=O)N[C@H]1C[C@@H](c2c(-c3ccc(F)cc3)[nH]c3c(F)cc(F)cc32)C1` [Compound 42] was tested, and the IC50 was over 1000 nM.

For `O=C(NC[C@H]1C[C@H](c2c(-c3ccc(F)cc3)[nH]c3c(F)cc(F)cc32)C1)c1ccn[nH]1` [Compound 292], the IC50 was over 1000 nM.

In the case of `O=C(CCN1CCCCC1)N[C@H]1C[C@H](c2c(-c3ccc(F)cc3)[nH]c3c(F)cc(F)cc32)C1` [Compound 124], the IC50 is reported as over 1000 nM.

With `CN(C)C(=O)CCC(=O)N[C@H]1C[C@H](c2c(-c3ccc(F)cc3)[nH]c3c(F)cc(F)cc32)C1` [Compound 123] the IC50 was 250 to 1000 nM.

`Cn1nccc1CC(=O)NC[C@H]1C[C@@H](c2c(-c3ccc(F)cc3)[nH]c3c(F)cc(F)cc32)C1` [Compound 322] showed an IC50 of over 1000 nM.

`C[C@H](CO)NCC1CC(c2c(-c3ccc(F)cc3)[nH]c3c(F)cc(F)cc23)C1` (stereo partly shown) [Compound 394] showed an IC50 of over 1000 nM.

In the case of `CNCCC(=O)N[C@H]1C[C@@H](c2c(-c3ccc(F)cc3)[nH]c3c(F)cc(F)cc32)C1` [Compound 75], the IC50 is reported as 250 to 1000 nM.

`O=C(NC[C@H]1C[C@@H](c2c(-c3ccc(F)cc3)[nH]c3c(F)cc(F)cc32)C1)C1(O)CC1` [Compound 234] was tested, and the IC50 was over 1000 nM.

`O=S(=O)(NC[C@H]1C[C@H](c2c(-c3ccc(F)cc3)[nH]c3c(F)cc(F)cc32)C1)NC(CO)CF` (stereo partly shown) [Compound 346] gave an IC50 of 250 to 1000 nM.

Work on `NC1CC(c2c(-c3ccc(F)cc3)[nH]c3c(F)cc(C(F)(F)F)cc23)C1` (mixture of isomers) [Compound 1, 3-[7-fluoro-2-(4-fluorophenyl)-5-(trifluoromethyl)-1H-indol-3-yl]cyclobutanamine] yielded an IC50 of over 1000 nM.

For `CCS(=O)(=O)NCC(=O)N[C@H]1C[C@@H](c2c(-c3ccc(F)cc3)[nH]c3c(F)cc(F)cc32)C1` [Compound 43], the IC50 was over 1000 nM.

Compound `O=C(CCN1CCCCC1)NC[C@H]1C[C@@H](c2c(-c3ccc(F)cc3)[nH]c3c(F)cc(F)cc32)C1` [Compound 293] has an IC50 of over 1000 nM.

`O=C(NC[C@H]1C[C@H](c2c(-c3ccc(F)cc3)[nH]c3c(F)cc(F)cc32)C1)[C@@H]1C[C@H](F)CN1` [Compound 246] showed an IC50 of over 1000 nM.

`O=C(NC[C@H]1C[C@H](c2c(-c3ccc(F)cc3)[nH]c3c(F)cc(F)cc32)C1)[C@H]1C[C@@H](O)CN1` [Compound 275] gave an IC50 of over 1000 nM.
